Among the test systems are HCC-2998 colon; HT29 colon; K-562 leukemia; NCI-H23 lung; RPMI-8226 leukemia; SK-MEL-28 melanoma; MDA-MB-435; NCI/ADR-RES ovarian; MDA-N; OVCAR-4 ovarian.
Experiment in all cases: NCI-60 cell line screen, 48 h

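Step 1: Grow cells in 96-well plates. Step 2: Expose to compound for 48 hours at 5 concentrations. Step 3: Interpolate endpoints linearly; if unreached, use highest concentration. Here, GI50 denotes the concentration required for 50% inhibition of growth. TGI: concentration producing complete growth inhibition.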

For the molecule `Clc1ccc(SCCSCCCCCCCCCCSCCSc2ccc(Cl)cc2)cc1`, the TGI in the experiment with HCC-2998 colon, in the experiment with HT29 colon, in the experiment on K-562 leukemia, with NCI-H23 lung, in the experiment on RPMI-8226 leukemia and in the experiment with SK-MEL-28 melanoma was above 100 µM throughout.

In the case of `CC(OC(=O)NCn1cc(-c2ccccc2)nn1)c1ccccc1` (centres undefined), the TGI is above 100 µM in the experiment on HCC-2998 colon; above 100 µM in the experiment with HT29 colon; 75.5 µM in the experiment with K-562 leukemia; above 100 µM in the experiment on MDA-MB-435; 76.8 µM in the experiment with NCI-H23 lung; above 100 µM in the experiment on NCI/ADR-RES ovarian. For the same molecule, the TGI in the experiment with RPMI-8226 leukemia and in the experiment on SK-MEL-28 melanoma was above 100 µM in each case.

On to `Nc1c(-c2nc3ccccc3s2)c2ccc([N+](=O)[O-])cc2c(=O)n1-c1cccc(C(=O)O)c1`, for which the TGI with HCC-2998 colon was above 100 µM; in the experiment on HT29 colon it was above 100 µM; with MDA-MB-435 it was above 100 µM; in the experiment with MDA-N it was above 100 µM; with NCI-H23 lung it was 92.8 µM; in the experiment on NCI/ADR-RES ovarian, above 100 µM. Also, the values for the TGI with OVCAR-4 ovarian and in the experiment with SK-MEL-28 melanoma were above 100 µM and 59.8 µM, respectively.

Turning to `O=C1NC(Cc2c[nH]c3ccccc23)C(=O)N2C(C3CCCCC3)c3[nH]c4ccccc4c3C[C@@H]12` (some centres undefined), the TGI came out at 29.6 µM in the experiment with HT29 colon; 44.8 µM in the experiment on K-562 leukemia; 24.6 µM in the experiment on MDA-MB-435; 25.2 µM in the experiment on MDA-N; 51 µM in the experiment on NCI-H23 lung; 41.2 µM in the experiment with NCI/ADR-RES ovarian. Besides, the TGI with OVCAR-4 ovarian was above 100 µM; in the experiment with RPMI-8226 leukemia, 32.8 µM; with SK-MEL-28 melanoma, 44.4 µM.

With `COc1cc2c(c(C)c1O)[C@H]1COc3ccccc3[C@H]1O2`, the TGI with HT29 colon was above 100 µM; in the experiment with K-562 leukemia, 56.5 µM; in the experiment on NCI-H23 lung, 64.2 µM; in the experiment on OVCAR-4 ovarian it was 89.3 µM; in the experiment with RPMI-8226 leukemia, 75.3 µM; in the experiment on SK-MEL-28 melanoma, above 100 µM.

For the molecule `CCOc1ccc(/C(O)=C/c2nc3ccccc3nc2/C=C(\O)c2ccc(OCC)cc2)cc1`, the TGI with HCC-2998 colon, in the experiment on HT29 colon, in the experiment with K-562 leukemia, in the experiment on MDA-MB-435, in the experiment on MDA-N and in the experiment on NCI-H23 lung was above 100 µM in each case. Besides, the TGI in the experiment with OVCAR-4 ovarian, in the experiment on RPMI-8226 leukemia and with SK-MEL-28 melanoma was above 100 µM each time.

Take `COc1cc(C2c3cc4c(cc3OC(Nc3ccc(C(=O)O)cc3)C2C)OCO4)cc(OC)c1OC` (centres undefined): the TGI is 0.853 µM in the experiment on HCC-2998 colon; above 34.2 µM in the experiment with HT29 colon; 0.265 µM with MDA-MB-435; above 68.7 µM in the experiment with NCI-H23 lung; 4.9 µM in the experiment with NCI/ADR-RES ovarian; above 52.9 µM with OVCAR-4 ovarian. Besides, the TGI is 25 µM in the experiment with RPMI-8226 leukemia and above 100 µM in the experiment on SK-MEL-28 melanoma.

Regarding `O=C/C(=C(/Br)I)c1ccccc1`, the TGI with HT29 colon was 5.29 µM; in the experiment on K-562 leukemia, 3.85 µM; in the experiment with MDA-MB-435, 6.74 µM; in the experiment with MDA-N, 6.86 µM; in the experiment with NCI-H23 lung, 12.7 µM; with NCI/ADR-RES ovarian it was 15.2 µM. For the same molecule, the TGI in the experiment with OVCAR-4 ovarian is 10.6 µM; in the experiment with SK-MEL-28 melanoma, 2.6 µM.

Turning to `Cc1cccc2c1Oc1ccccc1C2NC(=O)c1ccc([N+](=O)[O-])cc1` (centres undefined), the TGI in the experiment on HT29 colon, in the experiment on K-562 leukemia, in the experiment with MDA-N, with NCI-H23 lung, in the experiment on NCI/ADR-RES ovarian and in the experiment with OVCAR-4 ovarian was above 100 µM throughout. Also, the TGI in the experiment with RPMI-8226 leukemia and in the experiment with SK-MEL-28 melanoma was above 100 µM in each case.

In the case of `COC(=O)C1=C(C(=O)OC)C2(OC(C)=O)c3ccccc3-c3ccccc3C12` (centres undefined), the TGI came to 31 µM with HCC-2998 colon; 10.6 µM with HT29 colon; 25.6 µM in the experiment with NCI-H23 lung; 6.48 µM in the experiment on OVCAR-4 ovarian; 6.56 µM in the experiment with RPMI-8226 leukemia; 11.9 µM in the experiment on SK-MEL-28 melanoma.

As to `O=c1[nH]c(=O)n(C2CC(O)C(CO)O2)cc1OCCCc1ccccc1` (centres undefined), the TGI in the experiment on HT29 colon, with K-562 leukemia, with MDA-MB-435, in the experiment with MDA-N, in the experiment with NCI-H23 lung and in the experiment on NCI/ADR-RES ovarian was above 100 µM in each case. In addition, the TGI in the experiment with OVCAR-4 ovarian, in the experiment on RPMI-8226 leukemia and in the experiment on SK-MEL-28 melanoma was above 100 µM throughout.

With `O=C1CN2Cc3cc(N4CCOCC4)ccc3N=C2N1`, the TGI in the experiment on HT29 colon, with K-562 leukemia, in the experiment with MDA-MB-435, with NCI-H23 lung, in the experiment with NCI/ADR-RES ovarian and with OVCAR-4 ovarian was above 100 µM in each case. For the same molecule, the TGI in the experiment on RPMI-8226 leukemia and in the experiment on SK-MEL-28 melanoma was above 100 µM throughout.

As to `NCCCNc1nc2ccccc2c2c(=O)c3cc(C(F)(F)F)ccc3sc12`, the GI50 in the experiment with MDA-MB-435 was 1.65 µM; in the experiment on RPMI-8226 leukemia, 2.06 µM; in the experiment on SK-MEL-28 melanoma it was 1.81 µM. The TGI with MDA-MB-435 amounted to 3.06 µM; in the experiment on RPMI-8226 leukemia it was 4.71 µM; in the experiment with SK-MEL-28 melanoma, 3.23 µM.

In the case of `CCCn1c(SCC)c2ccccc2c1-c1nc(F)nc(F)n1`, the TGI in the experiment on HCC-2998 colon, with HT29 colon, in the experiment on K-562 leukemia, in the experiment with NCI-H23 lung, in the experiment with OVCAR-4 ovarian and in the experiment with RPMI-8226 leukemia was above 100 µM throughout. The molecule further had a TGI in the experiment with SK-MEL-28 melanoma above 100 µM.

`COc1ccc(C2C3C(=O)C=CC(=O)C3[C@@H]2C)cc1OC` (some centres undefined): the TGI in the experiment with HCC-2998 colon is above 100 µM; in the experiment with HT29 colon, above 100 µM; with K-562 leukemia, above 100 µM; with NCI-H23 lung it was above 100 µM; in the experiment with OVCAR-4 ovarian, above 100 µM; in the experiment with RPMI-8226 leukemia, 63.1 µM. Also, in the experiment with SK-MEL-28 melanoma, the TGI is above 100 µM.

For `O=C(/C=C/c1ccc(Cl)cc1)Oc1ccc(/C=C2\CCCCC2=O)cc1`, the TGI in the experiment on HCC-2998 colon, with HT29 colon, in the experiment on MDA-MB-435, in the experiment with MDA-N, with NCI-H23 lung and in the experiment with OVCAR-4 ovarian was above 100 µM each time. Further, the TGI in the experiment on RPMI-8226 leukemia and in the experiment with SK-MEL-28 melanoma was above 100 µM each time.

In the case of `CCNC1(c2cccc(C)c2)OC(C)(C)c2cccc3cccc1c23` (centres undefined), the TGI is 27.8 µM with HT29 colon; above 100 µM with K-562 leukemia; 33.2 µM with MDA-MB-435; 36.8 µM in the experiment with MDA-N; 34 µM in the experiment on NCI-H23 lung; 42.6 µM in the experiment with NCI/ADR-RES ovarian. Moreover, the TGI in the experiment with OVCAR-4 ovarian is 29.9 µM; in the experiment with RPMI-8226 leukemia, 15.8 µM.

The values are drawn from PubChem BioAssay (NCI).
